Measured values taken from patent US5710166A, “N-acyl beta amino acid derivatives useful as platelet aggregation inhibitors” (The Monsanto Company, priority 1995, dated 1998).

Tested on: platelet aggregation (Dog PRP)
Test: In-Vitro Platelet Aggregation in PRP (ADP-induced, dog platelet-rich plasma)
Assay type: cell-based
Conditions: Canis lupus familiaris, ADP 50 um final concentration; for IC50: linear regression of dose response curve, read-out: IC50 (dosage at which 50% of platelet aggregation is inhibited)
Method: Healthy male or female dogs were fasted for 8 hours prior to drawing blood; then 30 ml whole blood was collected using a butterfly needle and 30 cc plastic syringe with 3 ml or 0.129M buffered sodium citrate (3.8%). The syringe was rotated carefully as blood was drawn to mix the citrate. Platelet-rich plasma (PRP) was prepared by centrifugation at 975 x g for 3.17 minutes at room temperature allowing the centrifuge to coast to a stop without braking. The PRP was removed from the blood with a plastic pipette and placed in a plastic capped, 50 mL Corning conical sterile centrifuge tube which was held at room temperature. Platelet poor plasma (PPP) was prepared by centrifuging the remaining blood at 2000 x g for 15 minutes at room temperature allowing the centrifuge to coast to a stop without braking. The PRP was adjusted with PPP to a count of 2-3×10^8 platelets per mL. 400 uL of the PRP preparation and 50 uL of the compounds solution to be tested or saline were preincubated for 1 minute at 37° C. in a […].). 50 uL of adenosine 5' diphosphate (ADP) (50 um final concentration) was added to the cuvettes and the aggregation was monitored for 1 minute. All compounds are tested in duplicate. Results are calculated as follows: Percent of control=[(maximal OD minus initial OD of compound) divided by (maximal OD minus initial OD of control saline)]×100. The % inhibition=100-(percent of control).
The compounds tested and their median inhibitory concentrations (IC50) are recorded in Table I. IC50 's (dosage at which 50% of platelet aggregation is inhibited) were calculated by linear regression of the dose response curve.

SMILES | inhibition at 10 µM (compound at 10^-5 M, read-out: % Inh. (inhibition of platelet aggregation)) [%] | IC50 [µM]
N=C(N)c1ccc(CNc2cccc(C(=O)NCCC(=O)O)c2)cc1 [Example 2, β-[[3-[4-(aminoiminomethyl)benzyl]aminobenzoyl]amino]propanoic acid] | 28 | 
N=C(N)c1ccc(CNCCC(=O)NC(CC(=O)O)c2cccnc2)cc1 (stereo not drawn) [Example 6, β-[[3-[4-(aminoiminomethyl)benzyl]aminopropanoyl]amino]-3-pyridinepropanoic acid] |  | 0.8
N=C(N)c1ccc(CNc2cccc(C(=O)NC(CC(=O)O)c3cccnc3)c2)cc1 (stereo not drawn) [Example 4, β-[[3-[4-(aminoiminomethyl)benzyl]aminobenzoyl]amino]-3-pyridinepropanoic acid] |  | 6.8
